Here are results for ten compounds from US20040063746A1, “Indole, azaindole and related heterocyclic ureido and thioureido piperazine derivatives” (priority 2002, published 2004).

The structures appear in SMILES notation. Some results are limits rather than exact numbers.

What is called EC50 is the midpoint of the concentration-response curve.

This experiment relates to HIV-1 single-round infectious reporter virus. The experiment can be described thus: microbe, parasite or virus in culture. The format is cell-based. The note with it: Human immunodeficiency virus 1, HeLa, 72 h, read-out: EC50 Group from Table 1. Here is the method: Virus production-Human embryonic Kidney cell line, 293T, was propagated in Dulbecco's Modified Eagle Medium (Invitrogen, Carlsbad, Calif.) containing 10% fetal Bovine serum (FBS, Sigma, St. Louis, Mo.).
Virus infection—Human epithelial cell line, HeLa, expressing the HIV-1 receptor CD4 was propagated in Dulbecco's Modified Eagle Medium (Invitrogen, Carlsbad, Calif.) containing 10% fetal Bovine serum (FBS, Sigma, St. Louis, Mo.) and supplemented with 0.2 mg/mL Geneticin (Invitrogen, Carlsbad, Calif.).
Virus-Single-round infectious reporter virus was produced by co-transfecting human embryonic Kidney 293 cells with an HIV-1 envelope DNA expression vector and a proviral cDNA containing an envelope deletion mutation and the luciferase reporter gene inserted in place of HIV-1 nef sequences (Chen et al, Ref. 41). Transfections were performed using lipofectAMINE PLUS reagent as described by the manufacturer (Invitrogen, Carlsbad, Calif.).
1. HeLa CD4 cells were plated in 96 well plates at a cell density of 1×10^4 cells per well in 100 μl Dulbecco's Modified Eagle Medium containing 10% fetal Bovine serum and incubated overnight.
2. Compound was added in a 2 μl dimethylsulfoxide solution, so that the final assay concentration would be ≦10 μM.
3. 100 μl of single-round infectious reporter virus in Dulbecco's Modified Eagle Medium was then added to the plated cells and compound at an approximate multiplicity of infection (MOI) of 0.01, resulting in a final volume of 200 μl per well.
4. Virally-infected cells were incubated at 37 degrees Celsius, in a CO2 incubator, and harvested 72 h after infection.
5. Viral infection was monitored by measuring luciferase expression from viral DNA in the infected cells using a luciferase reporter gene assay kit, as described by the manufacturer (Roche Molecular Biochemicals, Indianapolis, Ind.). Infected cell supernatants were removed and 50 μl of lysis buffer was added per well. After 15 minutes, 50 μl of freshly-reconstituted luciferase assay reagent was added per well. Luciferase activity was then quantified by measuring luminescence using a Wallac microbeta scintillation counter.
7. An EC50 provides a method for comparing the antiviral potency of the compounds of this invention. The effective concentration for fifty percent inhibition (EC50) was calculated with the Microsoft Excel Xlfit curve fitting software. For each compound, curves were generated from percent inhibition calculated at 10 different concentrations by using a four paramenter logistic model (model 205). Table 1 is the key for the data in Table 2.
Consider `COC(=O)c1ccc(F)c2c(C(=O)C(=O)N3CCN(C(=O)N(C)C)CC3)c[nH]c12` [Example 1], for which the EC50 was in the range of 1000 to 5000 nM.

On to `CNC(=O)c1ccc(F)c2c(C(=O)C(=O)N3CCN(C(=O)N(C)C)CC3)c[nH]c12` [Example 2], for which the half-maximal effective concentration (EC50) was under 1000 nM.

With `CNC(=O)c1ccc(F)c2c(C(=O)C(=O)N3CCN(C(=S)N(C)C)CC3)c[nH]c12` [Example 3], the half-maximal effective concentration (EC50) is under 1000 nM. The figure for `CNC(=O)c1ccc(F)c2c(C(=O)C(=O)N3CCN(C(=O)N(C)c4ccccc4)CC3)c[nH]c12` [Example 4] is 1000 to 5000 nM; for `CCN(CC)C(=O)N1CCN(C(=O)C(=O)c2c[nH]c3c(C(=O)NC)ccc(F)c23)CC1` [Example 5] it is 1000 to 5000 nM; for `CNC(=O)c1ccc(F)c2c(C(=O)C(=O)N3CCN(C(=O)N(C(C)C)C(C)C)CC3)c[nH]c12` [Example 6] it is over 5000 nM. For the compound `CNC(=O)c1ccc(F)c2c(C(=O)C(=O)N3CCN(C(=O)NC(C)(C)C)CC3)c[nH]c12` [Example 7], the EC50 is over 5000 nM. The same measure for `CCCCNC(=S)N1CCN(C(=O)C(=O)c2c[nH]c3c(C(=O)NC)ccc(F)c23)CC1` [Example 8]: over 5000 nM; for `CN(C)C(=O)N1CCN(C(=O)C(=O)c2c[nH]c3c(-n4cncn4)ncc(F)c23)CC1` [Example 9]: under 1000 nM; for `CNC(=O)c1ccc(F)c2c(C(=O)C(=O)N3CCN(C(=O)N4CCCC4)CC3)c[nH]c12` [Example 15]: 1000 to 5000 nM.
